Source: patent EP0650958A1, “Hydrazones of indane-triones and their application in therapy” (LABORATOIRE INNOTHERA Société Anonyme, priority 1993, dated 1995)
Structures can show the parent of a compound that is named as a salt.

Experiments:
[1] = tested on: hyperperméabilité vasculaire induite par le zymosan; assay: Vascular hyperpermeability induced by zymosan (extravasation of albumin or Evans blue); assay type: in vivo; conditions: oral administration of 1-20 mg/kg
Source text: (§1) Pour l'étude in vivo, ils sont administrés par voie intra-veineuse sous forme de solution aqueuse pure, par voie intrapéritonéale sous forme de solution aqueuse contenant ou non du DMSO ou par voie orale en solution ou en suspension dans la carboxyméthylcellulose ou dans une solution aqueuse composée contenant du Tween^(R) et dans certains cas du DMSO (diméthylsulfoxyde).
La perméabilité vasculaire est étudiée in vivo et in vitro par la mesure de l'extravasation d'albumine ou de colorant liant l'albumine (Bleu Evans). In vivo, l'hyperperméabilité est induite par l'injection d'une solution d'histamine, de bradykinine ou de zymosan. Les modèles in vitro permettent de réaliser des hyperpressions (sur un territoire vasculaire isolé) et/ou des réactions vasculaires inflammatoires.
A titre illustratif, les composés des exemples 1, 3, 6 et 9 inhibent l'hyperperméabilité vasculaire induite par le zymosan après administration orale de 1-20 mg/kg.

veines saphènes de lapin = assay: Contraction of isolated rabbit saphenous vein rings produced by KCl (depolarisation); conditions: for augmentent les contractions des veines saphènes de lapin produites par le KCl: KCl 40 mM, compounds 10 nM à 30 mM; for EC50: increase of contractions produced by KCl 40 mM, read-out: DE₅₀
Source text: (§2) Pour l'étude in vitro, les composés sont solubilisés en solution aqueuse pure ou contenant du DMSO ou de l'alcool.
L'effet contractile est mesuré in vitro : • par la force de contraction développée par des anneaux vasculaires quiescents ou stimulés (soit électriquement soit par des agents physiologiques) et maintenus dans des conditions isométriques, • par la pression développée par des réseaux vasculaires perfusés à débit constant.
Les composés de l'invention et leurs sels éventuels augmentent la contraction des veines saphènes animales produite par la noradrénaline et la dépolarisation (solution hyperpotassique) sans affecter, dans la majorité des cas, les réponses contractiles artérielles. A titre illustratif, les composés des exemples 2, 3, 4, 7, et 9 (10 nM à 30 mM) augmentent de plus de 40 % (DE₅₀ ± 0,3 microM) les contractions des veines saphènes de lapin produites par le KCl (40 mM).

pleurésie chez le rat = assay: Carrageenan-induced pleurisy (oedema and leukocyte migration); assay type: in vivo; conditions: 5 mg/kg i.p. given twice, 6 hours after carrageenan injection into the pleural cavity
Source text: as §1
L'activité antiinflammatoire est démontrée par la mesure de l'inhibition de l'oedème et de la migration leucocytaire après induction d'une pleurésie chez le rat par injection de carragénine dans la cavité pleurale (Almeida et col., J. Pharmacol. Exp. Therap., 1980, 214 : 74).
Le composé des exemples 3 et 4 administrés deux fois en i.p. à la dose de 5 mg/kg inhibent l'oedème et la migration leucocytaire dans la cavité pleurale, 6 heures après injection de carragénine dans le modèle de la pleurésie chez le rat.

[2] = Free radical scavenging with DPPH as stable free radical; assay type: physicochemical; conditions: DPPH model, in vitro
Source text: as §2
L'effet "piégeur de radicaux libres" global est étudié in vitro par un modèle utilisant le 1,1-diphényl-2-picrylhydrazyl (DPPH) comme radical libre stable, méthode dérivée de celle décrite par Lamaison et col., Plantes Médic. et Phytothérapie, XXII, 1988, 231-234.

EC50 (veines saphènes de lapin)	SMILES	hyperperméabilité vasculaire induite par le zymosan [1]	augmentent les contractions des veines saphènes de lapin produites par le KCl (veines saphènes de lapin)	migration leucocytaire dans la cavité pleurale (pleurésie chez le rat)	oedème (pleurésie chez le rat)	effet antiradicalaire [2]
	O=C(NN=c1c(=O)c2ccccc2c1=O)n1cccc1 [exemple 1, 2.3-Dihydro-1.3-dioxo-2-(pyrrol-1-yl-carbonylhydrazono)-1H-indene]	inhibent				
~300 nM	O=C(NN=c1c(=O)c2ccccc2c1=O)c1cccnc1 [exemple 2, 2.3-Dihydro-1.3-dioxo-2-[(3-pyridyl)carbonylhydrazono]-1H-indene, chlorhydrate]		> 40%			
~300 nM	Nc1ccc(C(=O)NN=c2c(=O)c3ccccc3c2=O)cc1 [exemple 3, 2-(4-Aminophenylcarbonylhydrazono)-2.3-dihydro-1.3-dioxo-1H-indene, chlorhydrate]	inhibent	> 40%	inhibent	inhibent	
	O=C(NN=c1c(=O)c2ccccc2c1=O)c1cccnc1 [exemple 6, 2.3-Dihydro-1.3-dioxo-2-[(3-pyridyl)carbonylhydrazono]-1H-indene, maleate]	inhibent				présentent un effet antiradicalaire
